Experimental data published in US9139532B2, “Pyrazolyl guanidine F1F0-atpase inhibitors and therapeutic uses thereof” (Lycera Corporation, priority 2010, dated 2015).
Where two headings read alike, the source gives them in different places.

Key:
F1F0-ATPase = target: T1, F1F0-ATPase (Bos taurus, UniProt P13621); assay: Inhibition of F1F0-ATPase activity in synthesizing ATP; format: biochemical; settings: inhibition of ATP synthesis by F1F0-ATPase; read-out: ATP Syn IC50
T1 construct: from tissue

Ramos cells = assay: Cytotoxicity in Ramos cells; format: cell-based; settings: cytotoxicity in Ramos cells, read-out: Ramos Cell EC50

Compound	IC50 (F1F0-ATPase) [µM]	EC50 (Ramos cells) [µM]	EC50 (Ramos cells; Homo sapiens) [µM]
CC(C)OCCCN/C(=N/C(=O)c1cccc(C#N)c1)Nc1cc(-c2ccc(Cl)cc2)n[nH]1 [Compound A-301]	< 10	< 10	
CCC(C)N/C(=N/C(=O)c1ccc(F)c(F)c1)Nc1cc(-c2ccc(Cl)cc2)n[nH]1 (centres unmarked) [Compound A-225]	< 10	< 10	
CC(C)(C)N/C(=N/C(=O)c1ccc(F)c(F)c1)Nc1[nH]nc(-c2ccc(Cl)cc2)c1F [Compound A-162]	< 10	< 10	
Cc1ccc(-c2cc(N/C(=N\C(=O)c3ccc(F)c(F)c3)NCCCOC(C)C)[nH]n2)cc1F [Compound A-322]	< 10	< 10	
Cc1ccc(-c2cc(N/C(=N\C(=O)c3ccc(C(F)(F)F)cc3)NC(C)C(C)C)[nH]n2)cc1F (centres unmarked) [Compound A-333]	< 10	> 10	
COCCOCC(C)(C)N/C(=N/C(=O)c1cccc(C#N)c1)Nc1cc(-c2ccc(F)cc2)n[nH]1 [Compound A-506]	< 10	< 10	
CC(C)(C)CN/C(=N/C(=O)c1ccc(C#N)cc1)Nc1cc(C(F)(F)F)[nH]n1 [Compound A-70]	< 10		< 10
Cc1ccc(C(=O)/N=C(\Nc2cc(-c3ccc(F)cc3)[nH]n2)NC(C)(C)C)cc1 [Compound A-550]	< 10	< 10	
C[C@@H](N/C(=N\C(=O)c1ccc(Cl)c(F)c1)Nc1cc(C(F)(F)F)n[nH]1)C1CCCCC1 [Compound A-117]	< 10		< 10
CC(C)(C)N/C(=N/C(=O)c1cccc(Cl)c1)Nc1cc(-c2ccc(F)cc2)n[nH]1 [Compound A-451]	< 10	< 10	
O=C(N=C(Nc1cc(F)cc(Cl)c1)Nc1cc(-c2ccc(F)cc2)n[nH]1)c1cccc(C(F)(F)F)c1 [Compound A-450]	< 10		< 10
O=C(/N=C(\Nc1cc(-c2cc(F)cc(F)c2)n[nH]1)NC1CCCC1)c1ccc(F)cc1 [Compound A-243]	< 10	< 10	
COC(=O)Cc1ccc(N/C(=N/C(=O)c2ccc(F)cc2)Nc2cc(C(F)(F)F)n[nH]2)cc1 [Compound A-173]	< 10		< 10
O=C(N=C(Nc1cc(F)cc(Cl)c1)Nc1cc(-c2ccc(F)cc2)n[nH]1)c1ccc(F)cc1 [Compound A-461]	< 10		< 10
CCC(C)N/C(=N/C(=O)c1ccc(Cl)c(F)c1)Nc1cc(-c2ccc(F)cc2)n[nH]1 (centres unmarked) [Compound A-219]	< 10	< 10	
CC(C)N/C(=N/C(=O)c1ccc(C(F)(F)F)cc1)Nc1cc(C(F)F)[nH]n1 [Compound A-58]	< 10		> 10
COc1ccc(-c2cc(N/C(=N\C(=O)c3ccc(C(F)(F)F)cc3)NCC(C)C)[nH]n2)cc1F [Compound A-571]	< 10	< 10	
Cc1ccc(-c2cc(N/C(=N\C(=O)c3ccc(Cl)c(F)c3)Nc3cc(F)cc(Cl)c3)n[nH]2)cc1 [Compound A-150]	< 10	< 10	
CC(C)NC(=NC(=O)c1ccc(F)cc1)Nc1cc(-c2ccc(F)cc2)[nH]n1 [Compound A-512]	< 10		< 10
COC[C@H](C)NC(=NC(=O)c1cccc(S(C)(=O)=O)c1)Nc1cc(-c2ccc(F)cc2)n[nH]1 [Compound A-491]	< 10		> 10
O=C(/N=C(/Nc1cc(F)cc(Cl)c1)Nc1cc(-c2ccc(F)cc2)n[nH]1)c1ccc(F)c(F)c1 [Compound A-441]	< 10	< 10	

Compound	IC50 (F1F0-ATPase) [µM]	EC50 (Ramos cells) [µM]	EC50 (Ramos cells; Homo sapiens) [µM]
CC1(N/C(=N/C(=O)c2ccc(Cl)cc2)Nc2n[nH]c3ccccc23)CCC1 [Compound A-38]	< 10		< 10
COCC(C)NC(=NC(=O)c1cccc(F)c1)Nc1cc(-c2ccc(Cl)cc2)n[nH]1 (centres unmarked) [Compound A-384]	< 10	< 10	
CCC(C)CN/C(=N/C(=O)c1ccc(Cl)c(F)c1)Nc1cc(-c2cc(F)cc(F)c2)n[nH]1 (centres unmarked) [Compound A-346]	< 10	< 10	
O=C(/N=C(\Nc1cc(-c2cc(F)cc(F)c2)n[nH]1)NC1CCCC1)c1ccc(Cl)cc1 [Compound A-229]	< 10	< 10	
COc1cccc(C(=O)N=C(NCc2ccc(F)cc2Cl)Nc2cc(C(F)(F)F)n[nH]2)c1 [Compound A-542]	< 10		< 10
COCC(C)NC(=NC(=O)c1cccc(F)c1)Nc1cc(-c2ccc(F)cc2)n[nH]1 (centres unmarked) [Compound A-389]	< 10	< 10	
CC(C)N/C(=N/C(=O)c1cccc(F)c1)Nc1cc(-c2ccc(F)cc2)n[nH]1 [Compound A-390]	< 10	> 10	
COc1ccc(C(=O)N=C(NCc2ccc(F)cc2Cl)Nc2cc(C(F)(F)F)n[nH]2)cc1 [Compound A-541]	< 10		< 10
CC(C)NC(=NC(=O)c1ccc(Cl)c(F)c1)Nc1cc(-c2ccc(Cl)cc2)n[nH]1 [Compound A-383]	< 10		< 10
CC(C)(C)NC(=NC(=O)c1ccnc(N)c1)Nc1cc(-c2ccc(F)cc2)[nH]n1 [Compound A-486]	< 10		< 10
CCOC[C@H](C)NC(=NC(=O)c1ccc(Cl)cc1)Nc1cc(-c2ccc(F)cc2)n[nH]1 [Compound A-265]	< 10		< 10
CC(C)OCCN/C(=N/C(=O)c1ccc(F)cc1)Nc1cc(-c2ccc(F)cc2)n[nH]1 [Compound A-271]	< 10	< 10	
O=C(/N=C(\Nc1cc(C(F)(F)F)[nH]n1)NC(C1CC1)C1CC1)c1ccc(Cl)cc1 [Compound A-7]	< 10		< 10
CC(C)(C)c1cc(N/C(=N\C(=O)c2ccc(Cl)cc2)NCC(F)(F)F)n[nH]1 [Compound A-16]	< 10		< 10
COc1ccc(C(=O)/N=C(\Nc2cc(-c3ccc(F)cc3)n[nH]2)NC(C)(C)C)cn1 [Compound A-494]	< 10	< 10	
COc1ccc(C(=O)/N=C(\Nc2cc(-c3ccc(F)cc3)n[nH]2)NC(C)(C)C)c(F)c1 [Compound A-373]	< 10	< 10	
O=C(/N=C(/NCc1ccc(F)cc1Cl)Nc1cc(-c2ccc(F)cc2)[nH]n1)c1ccc(Cl)c(F)c1 [Compound A-142]	< 10	< 10	
CC(C)(C)N/C(=N/C(=O)c1ccnc(N2CCCC2)c1)Nc1cc(-c2ccc(F)cc2)n[nH]1 [Compound A-487]	< 10	< 10	
O=C(/N=C(/NCc1ccc(Cl)cc1F)Nc1cc(C(F)(F)F)[nH]n1)c1ccc(F)c(F)c1 [Compound A-27]	< 10		< 10
CCC(COC)N/C(=N/C(=O)c1ccc(F)c(F)c1)Nc1cc(-c2ccc(F)cc2)n[nH]1 (centres unmarked) [Compound A-268]	< 10	< 10	
COc1ccccc1CN/C(=N/C(=O)c1ccc(C(F)(F)F)cc1)Nc1cc(C(F)(F)F)[nH]n1 [Compound A-424]	< 10	< 10	

Compound	IC50 (F1F0-ATPase) [µM]	EC50 (Ramos cells) [µM]	EC50 (Ramos cells; Homo sapiens) [µM]
CC(C)(C)N/C(=N/C(=O)c1ccc(F)cc1)Nc1cc(-c2ccc(F)cc2)n[nH]1 [Compound A-459]	< 10	< 10	
CCC(C)N/C(=N/C(=O)c1ccc(C(F)(F)F)cc1)Nc1cc(-c2ccc(C)c(F)c2)n[nH]1 (centres unmarked) [Compound A-334]	< 10	< 10	
N#Cc1ccc(C(=O)/N=C(/NCc2ccc(F)cc2Cl)Nc2cc(C(F)(F)F)[nH]n2)cc1 [Compound A-81]	< 10		< 10
Cc1ccc(-c2cc(N/C(=N\C(=O)c3ccc(F)c(F)c3)NCC(C)C)[nH]n2)cc1F [Compound A-323]	< 10	< 10	
Cc1ccc(-c2cc(N/C(=N\C(=O)c3ccc(F)c(F)c3)NC3CCCC3)[nH]n2)cc1F [Compound A-316]	< 10	< 10	
CC(C)(C)N/C(=N/C(=O)c1ccc(F)c(F)c1)Nc1cc(-c2cc(F)cc(Cl)c2)n[nH]1 [Compound A-290]	< 10	< 10	
O=C(/N=C(\Nc1cc(C(F)(F)F)n[nH]1)NC1CCCOC1)c1ccc(F)c(F)c1 (centres unmarked) [Compound A-105]	< 10		< 10
O=C(/N=C(/NCc1ccc(F)cc1Cl)Nc1cc(C(F)(F)F)[nH]n1)c1ccc(C(F)F)cc1 [Compound A-83]	< 10		< 10
CC(C)(C)N/C(=N/C(=O)c1ccc(C#N)cc1)Nc1cc(C(F)(F)F)[nH]n1 [Compound A-71]	< 10		< 10
O=C(N=C(Nc1cc(C(F)(F)F)n[nH]1)N1CCCC1)c1ccc(C(F)(F)F)cc1 [Compound A-532]	< 10		> 10
Cc1cc(N/C(=N\C(=O)c2ccc(C(F)(F)F)cc2)NC(C)C)n[nH]1 [Compound A-190]	> 10	> 10	
COC[C@H](C)N/C(=N/C(=O)c1ccc(C(F)(F)F)cc1)Nc1cc(-c2ccc(OC)c(F)c2)n[nH]1 [Compound A-572]	< 10	> 10	
COCC(C)NC(=NC(=O)c1ccc(Cl)c(F)c1)Nc1cc(-c2cc(F)cc(F)c2)n[nH]1 (centres unmarked) [Compound A-273]	< 10	< 10	
COCC(C)NC(=NC(=O)c1ccc(S(C)(=O)=O)cc1)Nc1cc(-c2ccc(F)cc2)n[nH]1 (centres unmarked) [Compound A-497]	< 10		< 10
COC[C@@H](C)NC(=NC(=O)c1ccc(F)cc1)Nc1cc(-c2ccc(F)cc2)n[nH]1 [Compound A-500]	< 10		< 10
Cc1cc(NC(=NC(=O)c2ccc(Cl)c(F)c2)NC(C)(C)C)[nH]n1 [Compound A-181]	< 10		< 10
COc1ccc(-c2cc(N/C(=N\C(=O)c3ccc(Cl)c(F)c3)Nc3cc(F)cc(Cl)c3)n[nH]2)cc1 [Compound A-148]	> 10	> 10	
CC1(N/C(=N/C(=O)c2ccc(Cl)cc2)Nc2cc(C(F)(F)F)[nH]n2)CCC1 [Compound A-6]	< 10		< 10
CC(C)(C)N/C(=N/C(=O)c1ccc(Cl)cc1)Nc1cc(C(F)(F)F)[nH]n1 [Compound A-4]	< 10		< 10
